Results published in patent US6914045B2, “Glycopeptide antibiotics” (Wyeth Holdings Corporation, priority 2001, dated 2005).
Values after ≈ are worked out from the molar mass of the structure shown.

Tests used:
Test in all cases: in vitro antibacterial evaluation, MIC by broth dilution
Format in all cases: cell-based
Streptococcus sp. = conditions: broth dilution, 18 hours at 35° C.
Method in brief: (§1)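 MIC, the lowest antibiotic concentration preventing growth, was read across 64-0.06 μg/mL with 5×10^5 CFU/mL inoculum. Method followed NCCLS M7-A2 broth dilution using Mueller-Hinton II; Gram-positive strains covered recent methicillin-, penicillin- and/or vancomycin-resistant clinical isolates.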

Escherichia coli = conditions: 18 hours at 35° C.
Method in brief: as §1

Staphylococcus sp. = conditions: broth dilution, 18 hours at 35° C.
Method in brief: as §1

Enterococcus sp. = conditions: broth dilution, 18 hours at 35° C.
Method in brief: as §1

N=C1NCC(C(O)C2NC(=O)C(Cc3ccc(OC4OC(CO)C(OC5OC(CO)C(O)C6OC7(OC56)C5CC6CC(C5)CC7C6)C(O)C4O)cc3)NC(=O)C(CC3CCCCC3)NC(=O)CNC(=O)C(CO)NC(=O)C(C(O)C3CNC(=N)N3C3OC(CO)C(O)C(O)C3O)NC2=O)N1 (centres unmarked) [Example 106a, Cyclo[3-cyclohexylalanyl-O-[4-O-[2,3-O-(2-adamantylidene)hexopyranosyl]hexopyranosyl]-tyrosyl-3-(2-iminoimidazolidin-4-yl)seryl-3-(3-hexopyranosyl-2-iminoimidazolidin-4-yl)-serylserylglycyl]]
MIC Streptococcus agalactiae (GC 4564) (Streptococcus sp.; Streptococcus agalactiae (GC 4564)): 0.25 µg/mL (≈ 0.176 µM) | MIC Streptococcus pneumoniae (ATCC 6301) (Streptococcus sp.; Streptococcus pneumoniae (ATCC 6301)): 0.12 µg/mL (≈ 0.0845 µM) | MIC Streptococcus pneumoniae (GC 1894) (Streptococcus sp.; Streptococcus pneumoniae (GC 1894)): <0.06 µg/mL | MIC Streptococcus pneumoniae (GC 4565) (Streptococcus sp.; Streptococcus pneumoniae (GC 4565)): <0.06 µg/mL | MIC Streptococcus pyogenes (GC 4563) (Streptococcus sp.; Streptococcus pyogenes (GC 4563)): 0.25 µg/mL (≈ 0.176 µM) | MIC Streptococcus pneumoniae (ATCC 6301) (Streptococcus sp.; strain ATCC 6301): 0.12 µg/mL (≈ 0.0845 µM) | MIC Streptococcus pneumoniae (GC 1894) (Streptococcus sp.; strain GC 1894): <0.06 µg/mL | MIC Streptococcus pyogenes (GC 4563) (Streptococcus sp.; strain GC 4563): 0.25 µg/mL (≈ 0.176 µM) | MIC Streptococcus agalactiae (GC 4564) (Streptococcus sp.; strain GC 4564): 0.25 µg/mL (≈ 0.176 µM) | MIC Streptococcus pneumoniae (GC 4565) (Streptococcus sp.; strain GC 4565): <0.06 µg/mL | MIC Escherichia coli (ATCC 25922) (Escherichia coli; strain ATCC 25922): 32 µg/mL (≈ 22.5 µM) | MIC Escherichia coli (GC 4559) (Escherichia coli; strain GC 4559): 32 µg/mL (≈ 22.5 µM) | MIC Escherichia coli (GC 4560) (Escherichia coli; strain GC 4560): 2 µg/mL (≈ 1.41 µM) | MIC Coagulase Negative Staphylococcus (GC 4547) (Staphylococcus sp.): 2 µg/mL (≈ 1.41 µM) | MIC Coagulase Negative Staphylococcus (GC 4548) (Staphylococcus sp.): 1 µg/mL (≈ 0.704 µM) | MIC Coagulase Negative Staphylococcus (GC 4549) (Staphylococcus sp.): 1 µg/mL (≈ 0.704 µM) | MIC Coagulase Negative Staphylococcus (GC 4551) (Staphylococcus sp.): 2 µg/mL (≈ 1.41 µM) | MIC Staphylococcus aureus (ATCC 29213) (Staphylococcus sp.): 2 µg/mL (≈ 1.41 µM) | MIC Staphylococcus aureus (GC 1131) (Staphylococcus sp.): 2 µg/mL (≈ 1.41 µM) | MIC Staphylococcus aureus (GC 3051) (Staphylococcus sp.): 2 µg/mL (≈ 1.41 µM) | MIC Staphylococcus aureus (GC 3053) (Staphylococcus sp.): 2 µg/mL (≈ 1.41 µM) | MIC Staphylococcus aureus (GC 4541) (Staphylococcus sp.): 2 µg/mL (≈ 1.41 µM) | MIC Staphylococcus aureus (GC 4542) (Staphylococcus sp.): 2 µg/mL (≈ 1.41 µM) | MIC Staphylococcus aureus (GC 4544) (Staphylococcus sp.): 4 µg/mL (≈ 2.82 µM) | MIC Staphylococcus aureus (GC 4545) (Staphylococcus sp.): 2 µg/mL (≈ 1.41 µM) | MIC Staphylococcus aureus-SMITH (GC 4543) (Staphylococcus sp.): 2 µg/mL (≈ 1.41 µM) | MIC Staphylococcus haemolyticus (GC 4546) (Staphylococcus sp.): 2 µg/mL (≈ 1.41 µM) | MIC Staphylococcus haemolyticus (GC 4546) (Staphylococcus sp.; strain GC 4546): 2 µg/mL (≈ 1.41 µM) | MIC Coagulase Negative Staphylococcus (GC 4547) (Staphylococcus sp.; strain GC 4547): 2 µg/mL (≈ 1.41 µM) | MIC Coagulase Negative Staphylococcus (GC 4548) (Staphylococcus sp.; strain GC 4548): 1 µg/mL (≈ 0.704 µM) | MIC Coagulase Negative Staphylococcus (GC 4549) (Staphylococcus sp.; strain GC 4549): 1 µg/mL (≈ 0.704 µM) | MIC Coagulase Negative Staphylococcus (GC 4551) (Staphylococcus sp.; strain GC 4551): 2 µg/mL (≈ 1.41 µM) | MIC Staphylococcus aureus-SMITH (GC 4543) (Staphylococcus sp.; strain SMITH GC 4543): 2 µg/mL (≈ 1.41 µM) | MIC Staphylococcus aureus (ATCC 29213) (Staphylococcus sp.; strain ATCC 29213): 2 µg/mL (≈ 1.41 µM) | MIC Staphylococcus aureus (GC 1131) (Staphylococcus sp.; strain GC 1131): 2 µg/mL (≈ 1.41 µM) | MIC Staphylococcus aureus (GC 3051) (Staphylococcus sp.; strain GC 3051): 2 µg/mL (≈ 1.41 µM) | MIC Staphylococcus aureus (GC 3053) (Staphylococcus sp.; strain GC 3053): 2 µg/mL (≈ 1.41 µM) | MIC Staphylococcus aureus (GC 4541) (Staphylococcus sp.; strain GC 4541): 2 µg/mL (≈ 1.41 µM) | MIC Staphylococcus aureus (GC 4542) (Staphylococcus sp.; strain GC 4542): 2 µg/mL (≈ 1.41 µM) | MIC Staphylococcus aureus (GC 4544) (Staphylococcus sp.; strain GC 4544): 4 µg/mL (≈ 2.82 µM) | MIC Staphylococcus aureus (GC 4545) (Staphylococcus sp.; strain GC 4545): 2 µg/mL (≈ 1.41 µM) | MIC Enterococcus avium (GC 4558) (Enterococcus sp.; Enterococcus avium (GC 4558)): 4 µg/mL (≈ 2.82 µM) | MIC Enterococcus faecalis (ATCC 29212) (Enterococcus sp.; Enterococcus faecalis (ATCC 29212)): 8 µg/mL (≈ 5.64 µM) | MIC Enterococcus faecalis (GC 2242) (Enterococcus sp.; Enterococcus faecalis (GC 2242)): 4 µg/mL (≈ 2.82 µM) | MIC Enterococcus faecalis (GC 2691) (Enterococcus sp.; Enterococcus faecalis (GC 2691)): 4 µg/mL (≈ 2.82 µM) | MIC Enterococcus faecalis (GC 3059) (Enterococcus sp.; Enterococcus faecalis (GC 3059)): 8 µg/mL (≈ 5.64 µM) | MIC Enterococcus faecalis (GC 4552) (Enterococcus sp.; Enterococcus faecalis (GC 4552)): 4 µg/mL (≈ 2.82 µM) | MIC Enterococcus faecalis (GC 4553) (Enterococcus sp.; Enterococcus faecalis (GC 4553)): 4 µg/mL (≈ 2.82 µM) | MIC Enterococcus faecalis (GC 4554) (Enterococcus sp.; Enterococcus faecalis (GC 4554)): 8 µg/mL (≈ 5.64 µM) | MIC Enterococcus faecalis (GC 6189) (Enterococcus sp.; Enterococcus faecalis (GC 6189)): 4 µg/mL (≈ 2.82 µM) | MIC Enterococcus faecium (GC 2243) (Enterococcus sp.; Enterococcus faecium (GC 2243)): 4 µg/mL (≈ 2.82 µM) | MIC Enterococcus faecium (GC 4556) (Enterococcus sp.; Enterococcus faecium (GC 4556)): 8 µg/mL (≈ 5.64 µM) | MIC Enterococcus faecium (GC 4557) (Enterococcus sp.; Enterococcus faecium (GC 4557)): 2 µg/mL (≈ 1.41 µM) | MIC Enterococcus faecalis (ATCC 29212) (Enterococcus sp.; strain ATCC 29212): 8 µg/mL (≈ 5.64 µM) | MIC Enterococcus faecalis (GC 2242) (Enterococcus sp.; strain GC 2242): 4 µg/mL (≈ 2.82 µM) | MIC Enterococcus faecium (GC 2243) (Enterococcus sp.; strain GC 2243): 4 µg/mL (≈ 2.82 µM) | MIC Enterococcus faecalis (GC 2691) (Enterococcus sp.; strain GC 2691): 4 µg/mL (≈ 2.82 µM) | MIC Enterococcus faecalis (GC 3059) (Enterococcus sp.; strain GC 3059): 8 µg/mL (≈ 5.64 µM) | MIC Enterococcus faecalis (GC 4552) (Enterococcus sp.; strain GC 4552): 4 µg/mL (≈ 2.82 µM) | MIC Enterococcus faecalis (GC 4553) (Enterococcus sp.; strain GC 4553): 4 µg/mL (≈ 2.82 µM) | MIC Enterococcus faecalis (GC 4554) (Enterococcus sp.; strain GC 4554): 8 µg/mL (≈ 5.64 µM) | MIC Enterococcus faecium (GC 4556) (Enterococcus sp.; strain GC 4556): 8 µg/mL (≈ 5.64 µM) | MIC Enterococcus faecium (GC 4557) (Enterococcus sp.; strain GC 4557): 2 µg/mL (≈ 1.41 µM) | MIC Enterococcus avium (GC 4558) (Enterococcus sp.; strain GC 4558): 4 µg/mL (≈ 2.82 µM) | MIC Enterococcus faecalis (GC 6189) (Enterococcus sp.; strain GC 6189): 4 µg/mL (≈ 2.82 µM)
